From paper PMC7180948, “New Insights into 4-Anilinoquinazolines as Inhibitors of Cardiac Troponin I–Interacting Kinase (TNNi3K)” (Molecules, 2020)

Legend:
Assay in all cases: biochemical
Parameters in all cases: KINOMEscan competition binding panel (Eurofins DiscoverX), single concentration, % inhibition
Conditions in all cases: read-out: 7 at 1 µM % inhibition
ACVR2A = ACVR2A (Homo sapiens, UniProt P27037)
Summary of the method: (§1)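 Kinome-wide profiling (KINOMEscan, >400 human kinases) was run at 1 µM compound.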

AKT2 = AKT2 (Homo sapiens, UniProt P31751)
Chain of AKT2 (P31751 whole entry): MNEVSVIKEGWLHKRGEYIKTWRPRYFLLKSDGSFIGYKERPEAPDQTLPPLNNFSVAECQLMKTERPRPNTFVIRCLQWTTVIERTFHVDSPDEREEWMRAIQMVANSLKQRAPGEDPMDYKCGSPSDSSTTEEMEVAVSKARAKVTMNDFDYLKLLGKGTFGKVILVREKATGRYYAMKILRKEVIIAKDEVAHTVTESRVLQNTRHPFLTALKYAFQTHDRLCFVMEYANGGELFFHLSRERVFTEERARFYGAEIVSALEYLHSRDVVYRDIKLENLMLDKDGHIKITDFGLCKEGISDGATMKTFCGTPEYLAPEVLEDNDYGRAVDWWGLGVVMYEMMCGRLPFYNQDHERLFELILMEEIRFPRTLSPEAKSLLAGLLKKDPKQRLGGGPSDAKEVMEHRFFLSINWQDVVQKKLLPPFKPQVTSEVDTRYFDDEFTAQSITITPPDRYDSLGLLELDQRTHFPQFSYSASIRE
Summary of the method: as §1

AMPK-alpha2 = target: T1, AMPK-alpha2 (Homo sapiens, UniProt P54646)
T1 construct: gene PRKAA2
T1 sequence (P54646 whole entry): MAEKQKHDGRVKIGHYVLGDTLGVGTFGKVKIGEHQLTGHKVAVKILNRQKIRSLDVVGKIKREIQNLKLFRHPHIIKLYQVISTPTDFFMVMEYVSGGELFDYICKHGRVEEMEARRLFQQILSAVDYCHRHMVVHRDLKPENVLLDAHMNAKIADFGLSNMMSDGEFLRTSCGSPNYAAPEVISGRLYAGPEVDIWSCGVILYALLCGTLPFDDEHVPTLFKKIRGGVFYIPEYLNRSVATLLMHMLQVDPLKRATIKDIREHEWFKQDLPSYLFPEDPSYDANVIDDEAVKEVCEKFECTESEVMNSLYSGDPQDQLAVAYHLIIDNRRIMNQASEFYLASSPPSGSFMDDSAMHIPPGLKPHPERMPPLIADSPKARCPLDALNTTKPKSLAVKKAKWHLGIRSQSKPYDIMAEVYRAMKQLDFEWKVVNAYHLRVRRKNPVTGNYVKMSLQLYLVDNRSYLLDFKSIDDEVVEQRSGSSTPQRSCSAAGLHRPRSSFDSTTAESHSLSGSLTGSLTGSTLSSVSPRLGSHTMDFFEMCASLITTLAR
Summary of the method: as §1

BMX = BMX (Homo sapiens, UniProt P51813)
Summary of the method: as §1

CAMK1B = target: T2, CAMK1B (Homo sapiens, UniProt Q6P2M8)
T2 construct: gene PNCK
Summary of the method: as §1

CDK4 = CDK4 (Homo sapiens, UniProt P11802)
Chain of CDK4 (P11802 whole entry): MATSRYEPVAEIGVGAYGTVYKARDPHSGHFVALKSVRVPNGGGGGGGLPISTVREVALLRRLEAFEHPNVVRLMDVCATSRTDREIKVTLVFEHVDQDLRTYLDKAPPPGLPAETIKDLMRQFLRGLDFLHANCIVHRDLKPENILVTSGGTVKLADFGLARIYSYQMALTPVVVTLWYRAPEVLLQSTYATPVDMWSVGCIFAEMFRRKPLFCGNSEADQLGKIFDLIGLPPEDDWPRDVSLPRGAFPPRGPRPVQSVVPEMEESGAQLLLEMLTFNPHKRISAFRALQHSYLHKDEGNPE
Summary of the method: as §1

CDK5 = CDK5 (Homo sapiens, UniProt Q00535)
Summary of the method: as §1

DDR2 = DDR2 (Homo sapiens, UniProt Q16832)
Chain of DDR2 (Q16832 whole entry): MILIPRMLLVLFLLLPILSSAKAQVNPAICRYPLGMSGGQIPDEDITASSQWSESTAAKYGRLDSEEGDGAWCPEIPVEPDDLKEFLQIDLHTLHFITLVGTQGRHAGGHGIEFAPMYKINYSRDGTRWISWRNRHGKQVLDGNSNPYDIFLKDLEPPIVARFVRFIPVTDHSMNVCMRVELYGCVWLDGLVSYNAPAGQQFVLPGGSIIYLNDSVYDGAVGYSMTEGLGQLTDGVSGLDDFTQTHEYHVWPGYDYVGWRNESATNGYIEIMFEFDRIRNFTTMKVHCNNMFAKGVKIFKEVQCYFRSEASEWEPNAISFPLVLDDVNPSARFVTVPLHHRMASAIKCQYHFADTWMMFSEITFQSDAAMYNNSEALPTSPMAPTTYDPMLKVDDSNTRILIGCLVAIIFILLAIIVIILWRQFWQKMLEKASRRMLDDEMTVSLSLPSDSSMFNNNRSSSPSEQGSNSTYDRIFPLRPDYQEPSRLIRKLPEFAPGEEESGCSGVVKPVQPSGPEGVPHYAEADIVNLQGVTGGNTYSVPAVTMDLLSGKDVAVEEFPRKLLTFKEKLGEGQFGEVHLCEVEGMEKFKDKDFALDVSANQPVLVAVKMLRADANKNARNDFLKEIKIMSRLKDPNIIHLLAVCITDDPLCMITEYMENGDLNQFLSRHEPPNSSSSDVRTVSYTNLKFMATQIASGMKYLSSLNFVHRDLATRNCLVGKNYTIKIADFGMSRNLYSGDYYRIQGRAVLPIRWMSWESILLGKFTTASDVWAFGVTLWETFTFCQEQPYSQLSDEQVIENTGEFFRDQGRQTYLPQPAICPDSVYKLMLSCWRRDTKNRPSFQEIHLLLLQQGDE
Summary of the method: as §1

DYRK1A = DYRK1A (Homo sapiens, UniProt Q13627)
Summary of the method: as §1

DYRK2 = DYRK2 (Homo sapiens, UniProt Q92630)
Summary of the method: as §1

EPHA2 = EPHA2 (Homo sapiens, UniProt P29317)
Summary of the method: as §1

GRK7 = GRK7 (Homo sapiens, UniProt Q8WTQ7)
Summary of the method: as §1

HUNK = HUNK (Homo sapiens, UniProt P57058)
Summary of the method: as §1

LOK = target: T3, LOK (Homo sapiens, UniProt O94804)
T3 construct: gene STK10
T3 sequence (O94804 whole entry): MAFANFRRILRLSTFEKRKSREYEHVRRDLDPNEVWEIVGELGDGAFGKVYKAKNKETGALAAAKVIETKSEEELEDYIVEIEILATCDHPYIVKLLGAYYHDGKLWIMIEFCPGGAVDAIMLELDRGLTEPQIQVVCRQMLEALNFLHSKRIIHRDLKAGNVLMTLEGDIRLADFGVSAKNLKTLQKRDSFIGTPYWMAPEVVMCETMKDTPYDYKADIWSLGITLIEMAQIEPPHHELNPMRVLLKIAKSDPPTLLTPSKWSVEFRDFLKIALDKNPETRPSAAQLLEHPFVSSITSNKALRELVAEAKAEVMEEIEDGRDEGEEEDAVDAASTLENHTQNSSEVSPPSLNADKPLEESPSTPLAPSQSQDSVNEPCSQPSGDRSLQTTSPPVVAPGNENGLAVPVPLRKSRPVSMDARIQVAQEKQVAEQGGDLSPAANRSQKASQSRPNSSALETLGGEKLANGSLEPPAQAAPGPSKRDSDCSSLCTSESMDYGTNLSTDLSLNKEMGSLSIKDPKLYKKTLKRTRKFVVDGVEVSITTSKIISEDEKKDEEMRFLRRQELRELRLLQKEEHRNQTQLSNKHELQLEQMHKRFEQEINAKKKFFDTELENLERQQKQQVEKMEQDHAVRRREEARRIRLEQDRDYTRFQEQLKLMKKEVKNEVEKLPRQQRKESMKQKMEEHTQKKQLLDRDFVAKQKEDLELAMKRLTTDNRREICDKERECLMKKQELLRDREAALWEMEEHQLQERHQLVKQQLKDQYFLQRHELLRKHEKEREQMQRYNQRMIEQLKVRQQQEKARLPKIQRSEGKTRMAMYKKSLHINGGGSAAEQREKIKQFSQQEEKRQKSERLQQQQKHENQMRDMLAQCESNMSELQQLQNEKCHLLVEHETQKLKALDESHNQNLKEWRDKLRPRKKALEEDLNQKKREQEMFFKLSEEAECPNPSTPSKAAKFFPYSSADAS
Summary of the method: as §1

MAP4K5 = MAP4K5 (Homo sapiens, UniProt Q9Y4K4)
Chain of MAP4K5 (Q9Y4K4 whole entry): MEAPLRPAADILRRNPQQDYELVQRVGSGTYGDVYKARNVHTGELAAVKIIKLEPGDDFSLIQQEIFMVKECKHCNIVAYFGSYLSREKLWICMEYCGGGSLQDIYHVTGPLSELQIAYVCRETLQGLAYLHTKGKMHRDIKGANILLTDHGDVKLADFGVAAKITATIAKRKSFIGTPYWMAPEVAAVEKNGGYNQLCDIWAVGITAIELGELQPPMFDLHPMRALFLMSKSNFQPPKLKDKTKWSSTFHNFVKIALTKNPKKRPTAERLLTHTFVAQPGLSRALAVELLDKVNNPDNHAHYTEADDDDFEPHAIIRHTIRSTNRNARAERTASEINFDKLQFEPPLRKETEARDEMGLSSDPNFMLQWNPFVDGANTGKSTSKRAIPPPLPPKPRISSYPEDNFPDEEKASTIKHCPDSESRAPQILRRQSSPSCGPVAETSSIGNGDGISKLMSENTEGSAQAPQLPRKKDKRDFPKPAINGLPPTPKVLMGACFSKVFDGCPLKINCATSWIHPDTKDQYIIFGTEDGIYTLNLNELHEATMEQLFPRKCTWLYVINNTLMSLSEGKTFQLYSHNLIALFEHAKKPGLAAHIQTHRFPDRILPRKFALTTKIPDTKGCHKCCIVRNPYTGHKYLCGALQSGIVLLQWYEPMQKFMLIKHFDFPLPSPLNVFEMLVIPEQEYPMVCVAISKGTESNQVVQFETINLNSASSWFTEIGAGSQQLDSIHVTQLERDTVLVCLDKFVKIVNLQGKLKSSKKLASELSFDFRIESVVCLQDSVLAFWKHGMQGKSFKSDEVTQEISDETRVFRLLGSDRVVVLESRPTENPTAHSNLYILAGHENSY
Summary of the method: as §1

MET(M1250T) = MET(M1250T) (Homo sapiens, UniProt P08581, M1250T)
Summary of the method: as §1

MKNK2 = MKNK2 (Homo sapiens, UniProt Q9HBH9)
Chain of MKNK2 (Q9HBH9 whole entry): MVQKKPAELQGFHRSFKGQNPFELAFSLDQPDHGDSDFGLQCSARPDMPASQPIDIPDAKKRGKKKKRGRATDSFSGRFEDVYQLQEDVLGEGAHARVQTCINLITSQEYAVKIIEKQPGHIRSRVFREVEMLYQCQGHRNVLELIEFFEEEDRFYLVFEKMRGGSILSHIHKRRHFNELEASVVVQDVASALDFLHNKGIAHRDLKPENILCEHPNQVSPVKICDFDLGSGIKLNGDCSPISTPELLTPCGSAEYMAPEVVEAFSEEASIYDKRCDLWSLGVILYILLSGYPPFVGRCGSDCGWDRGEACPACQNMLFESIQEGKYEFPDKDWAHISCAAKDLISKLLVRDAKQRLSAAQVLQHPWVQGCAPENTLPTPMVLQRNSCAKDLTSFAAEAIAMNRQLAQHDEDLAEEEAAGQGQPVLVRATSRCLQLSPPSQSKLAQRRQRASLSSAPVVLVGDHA
Summary of the method: as §1

NLK = NLK (Homo sapiens, UniProt Q9UBE8)
Summary of the method: as §1

PAK1 = PAK1 (Homo sapiens, UniProt Q13153)
Summary of the method: as §1

PDGFRA = PDGFRA (Homo sapiens, UniProt P16234)
Summary of the method: as §1

PIK3CA = PIK3CA (Homo sapiens, UniProt P42336)
Summary of the method: as §1

PKN1 = PKN1 (Homo sapiens, UniProt Q16512)
Summary of the method: as §1

PLK2 = PLK2 (Homo sapiens, UniProt Q9NYY3)
Summary of the method: as §1

PRKD1 = PRKD1 (Homo sapiens, UniProt Q15139)
Summary of the method: as §1

TIE1 = TIE1 (Homo sapiens, UniProt P35590)
Summary of the method: as §1

Chain of ACVR2A (P27037 whole entry): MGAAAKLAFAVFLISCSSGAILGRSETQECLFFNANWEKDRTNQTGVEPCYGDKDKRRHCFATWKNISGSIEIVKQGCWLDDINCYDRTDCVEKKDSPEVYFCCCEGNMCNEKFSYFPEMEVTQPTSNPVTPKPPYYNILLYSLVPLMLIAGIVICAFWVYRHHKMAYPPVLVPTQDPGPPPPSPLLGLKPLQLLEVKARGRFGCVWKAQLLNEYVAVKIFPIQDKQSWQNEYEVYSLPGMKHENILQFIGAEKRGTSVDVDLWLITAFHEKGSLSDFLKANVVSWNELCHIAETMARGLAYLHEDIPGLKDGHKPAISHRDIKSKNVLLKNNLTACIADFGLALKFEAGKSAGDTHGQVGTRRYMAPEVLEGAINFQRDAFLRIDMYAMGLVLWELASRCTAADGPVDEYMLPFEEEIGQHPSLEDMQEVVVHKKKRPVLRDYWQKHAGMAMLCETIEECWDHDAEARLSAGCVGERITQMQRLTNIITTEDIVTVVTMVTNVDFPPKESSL

CNS(=O)(=O)c1ccc(N(C)C)c(Nc2ncnc3cc(OC)c(OC)cc23)c1 [compound 7, 3-((6,7-dimethoxyquinazolin-4-yl)amino)-4-(dimethylamino)-N-methylbenzenesulfonamide]
inhibition at 1 µM (ACVR2A): 0%
inhibition at 1 µM (AKT2): 0%
inhibition at 1 µM (AMPK-alpha2): 12%
inhibition at 1 µM (BMX): 0%
inhibition at 1 µM (CAMK1B): 46%
inhibition at 1 µM (CDK4): 0%
inhibition at 1 µM (CDK5): 0%
inhibition at 1 µM (DDR2): 41%
inhibition at 1 µM (DYRK1A): 0%
inhibition at 1 µM (DYRK2): 0%
inhibition at 1 µM (EPHA2): 0%
inhibition at 1 µM (GRK7): 23%
inhibition at 1 µM (HUNK): 0%
inhibition at 1 µM (LOK): 44%
inhibition at 1 µM (MAP4K5): 0%
inhibition at 1 µM (MET(M1250T)): 0%
inhibition at 1 µM (MKNK2): 13%
inhibition at 1 µM (NLK): 24%
inhibition at 1 µM (PAK1): 0%
inhibition at 1 µM (PDGFRA): 69%
inhibition at 1 µM (PIK3CA): 51%
inhibition at 1 µM (PKN1): 0%
inhibition at 1 µM (PLK2): 13%
inhibition at 1 µM (PRKD1): 20%
inhibition at 1 µM (TIE1): 0%
